The source of these data is patent US20150071974A1, “COMPOUNDS WHICH INHIBIT NEURONAL EXOCYTOSIS” (LUBRIZOL ADVANCED MATERIALS, INC., priority 2012, published 2015).

The test has as its system human neuroblastoma cell line. Description: Release of noradrenaline induced by TPA/Ionomycin in a neuroblastoma cell line, quantified by ELISA. The format is cell-based. To be noted: TPA/ION control = 100.00. The method, then: Quantification of the Release of Noradrenaline Induced by TPA/Ionomycin in a Neuroblastoma Cell Line by ELISA
The induction of the release of noradrenaline with TPA (12-O-tetradecanoylphorbol-13-acetate)/lonomycin enables direct measurement of neuronal exocytosis. For the study of the inhibitory effect of the compounds of the invention on the release of noradrenaline, cells of a human neuroblastoma cell line were pre-incubated (1×10^6 cells/well) for 60 minutes with the compound of the invention (1 μM, 10 μM, 100 μM, 500 μM or 1 mM compounds), and afterward the release of noradrenaline was induced. The release of the noradrenaline neurotransmitter was induced by an 8 minute pre-treatment with a solution of 12-O-tetradecanoylphorbol-13-acetate (TPA) 100 nM, which mobilized the intracellular vesicles which contained the neurotransmitter; followed by a 5 minute incubation with TPA/Ionomycin (100 nM/10 μM), which induced the release of the neurotransmitter contained in these vesicles. […] For this, absorbance at 405 nm was measured in Thermo Scientific Multiskan Ascent equipment.
The blocking of the SNARE complex by the compounds of the invention lead to an inhibition of neuronal exocytosis and therefore, a decrease in the levels of released noradrenaline (Table 6).
A general note: ELISA stands for enzyme-linked immunosorbent assay.

Ac-QNLEHIMDQ-NH2 [Ac-SEQ ID NO: 62-NH2]: the “% RELEASED NORADRENALINE Average” value stood at 77.76% (dose 10 μM), 82.72% (dose 100 μM) and 63.99% (dose 1000 μM).

With Ac-QQLENIMDN-NH2 [Ac-SEQ ID NO: 51-NH2], the “% RELEASED NORADRENALINE Average” value is, setting by setting: (dose 10 μM) 81.13%; (dose 100 μM) 101.40%; (dose 1000 μM) 35.37%.

Consider Ac-HQEHRKMD-NH2 [Ac-SEQ ID NO: 5-NH2], for which the “% RELEASED NORADRENALINE Average” value is given as 85.68% (dose 10 μM), 81.50% (dose 100 μM) and 51.45% (dose 1000 μM).
